Results: patent US20260184707A1, “PHARMACEUTICAL COMPOUNDS FOR THE TREATMENT OF COMPLEMENT MEDIATED DISORDERS” (ALEXION PHARMACEUTICALS, INC., priority 2022, published 2026)

The compounds below were run against T1, Human complement C1s enzyme (Homo sapiens, UniProt P09871) (assay: Human C1s enzyme assay). Conditions: human complement C1s enzyme 1.16 nM, substrate Z-L-Lys-SBzl, A405; read-out: IC50 (Stars).
T1 construct: purified from human serum, Complement Technology, Inc; purchased Complement Technology, Inc; host or cells: human serum (plasma-derived native protein)
T1 sequence (P09871 438-688 limits assumed): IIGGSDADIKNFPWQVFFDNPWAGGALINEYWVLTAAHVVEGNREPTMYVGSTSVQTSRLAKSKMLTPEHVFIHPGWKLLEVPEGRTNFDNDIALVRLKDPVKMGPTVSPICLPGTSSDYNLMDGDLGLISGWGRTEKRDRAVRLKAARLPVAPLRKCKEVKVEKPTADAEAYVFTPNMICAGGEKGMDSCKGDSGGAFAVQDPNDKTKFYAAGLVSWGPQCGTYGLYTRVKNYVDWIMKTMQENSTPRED
T1 sequence (P09871 16-437 partner limits assumed): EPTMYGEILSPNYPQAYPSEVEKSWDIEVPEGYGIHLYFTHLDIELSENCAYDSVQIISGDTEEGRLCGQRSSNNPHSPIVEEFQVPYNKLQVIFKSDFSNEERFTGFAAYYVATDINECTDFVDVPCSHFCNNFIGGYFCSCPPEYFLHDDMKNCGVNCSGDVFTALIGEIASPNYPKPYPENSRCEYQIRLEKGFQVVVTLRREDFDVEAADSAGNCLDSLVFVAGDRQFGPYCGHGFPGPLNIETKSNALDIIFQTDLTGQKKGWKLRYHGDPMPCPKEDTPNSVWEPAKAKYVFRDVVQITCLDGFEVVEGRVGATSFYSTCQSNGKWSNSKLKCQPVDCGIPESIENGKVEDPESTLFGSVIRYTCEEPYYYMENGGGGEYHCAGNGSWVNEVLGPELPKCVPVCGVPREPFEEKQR
Type: biochemical
Outline: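 Serum-purified human C1s (1.16 nM final) preincubated 5 min at room temperature with compound in 50 mM Tris, 1 M NaCl, pH 7.5. Z-L-Lys-SBzl and DTNB added at 100 μM each; A405 recorded every 30 s. IC50 from nonlinear regression of reaction rates versus compound concentration.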

Row | IC50 [nM] | SMILES
1 | < 100 | O=C(Cn1c(-c2ccccc2)ncc(NC(=O)c2noc(-c3ccccc3)n2)c1=O)NCc1cc2cnccc2[nH]1 [Compound 219, N-(1-(2-(((1H-pyrrolo[3,2-c]pyridine-2-yl)methyl)amino)-2-oxoethyl)-6-oxo-2-phenyl-1,6-dihydropyrimidin-5-yl)-5-phenyl-1,2,4-oxadiazole-3-carboxamide]
2 | < 100 | C[C@@H](Nc1cnc(-c2ncco2)n(CC(=O)NCc2cc3cnccc3[nH]2)c1=O)c1ccc2oc3ccccc3c2c1 [Compound 320, (R)-N-((1H-pyrrolo[3,2-c]pyridin-2-yl)methyl)-2-(5-((1-(dibenzo[b,d]furan-2-yl)ethyl)-amino)-2-(oxazol-2-yl)-6-oxo-pyrimidin-1(6H)-yl)acetamide]
3 | < 100 | O=C(Cn1c(-c2ccccc2)ncc(NC(=O)c2ccc(-c3ccccc3)s2)c1=O)NCc1cc2cnccc2[nH]1 [Compound 110, N-(1-(2-(((1H-pyrrolo[3,2-c]pyridin-2-yl)methyl)amino)-2-oxoethyl)-6-oxo-2-phenyl-1,6-dihydropyrimidin-5-yl)-5-phenylthiophene-2-carbox-amide]
4 | < 100 | O=C(Cn1c(-c2ccc(OC3CCOCC3)cc2)ncc(NCc2ccc3oc4ccccc4c3c2)c1=O)NCc1cc2cnccc2[nH]1 [Compound 280, N-((1H-pyrrolo[3,2-c]pyridin-2-yl)methyl)-2-(5-((dibenzo [b,d]furan-2-ylmethyl)amino)-6-oxo-2-(4-((tetrahydro-2H-pyran-4-yl)oxy)phenyl)pyrimi-din-1(6H)-yl)acetamide]
5 | < 100 | Cc1cn(CC(=O)NCc2cc3cnccc3[nH]2)c(=O)c(N[C@H](C)c2ccc3oc4ccccc4c3c2)n1 [Compound 333, (R)—N-((1H-pyrrolo[3,2-c]pyridine-2-yl)methyl)-2-(3-((1-(dibenzo[b,d]furan-2-yl)ethyl)amino)-5-methyl-2-oxopyrazin-1(2H)-yl)acetamide]
6 | > 1000 | O=C(Cn1c(-c2ccccc2)ncc(NS(=O)(=O)c2ccccc2)c1=O)NCc1cc2cnccc2[nH]1 [Compound 395, N-((1H-pyrrolo[3,2-c]pyridin-2-yl)methyl)-2-(6-oxo-2-phen-yl-5-(phenylsulfonamido)-pyrimidin-1(6H)-yl)acetamide]
7 | > 1000 | O=C(Cn1c(-c2ccccc2)ncc(NC(=O)c2cccc(-c3ncco3)c2)c1=O)NCc1cc2cnccc2[nH]1 [Compound 222, N-(1-(2-(((1H-pyrrolo[3,2-c]pyridine-2-yl)methyl)amino)-2-oxoethyl)-6-oxo-2-phenyl-1,6-dihydropyrimidin-5-yl)-3-(oxazol-2-yl)benzamide]
8 | < 100 | O=C(Cn1c(-c2ccccc2)ncc(NC(=O)c2ccc(-c3ccccc3)cc2F)c1=O)NCc1cc2cnccc2[nH]1 [Compound 166, N-(1-(2-(((1H-pyrrolo[3,2-c]pyridine-2-yl)methyl)amino)-2-oxoethyl)-6-oxo-2-phenyl-1,6-dihydropyrimidin-5-yl)-3-fluoro-[1,1′-biphenyl]-4-carboxamide]
9 | < 100 | O=C(Cn1c(-c2ccc(O[C@@H]3CO[C@H]4[C@@H]3OC[C@H]4O)cc2)ncc(NCCCc2ccccc2)c1=O)NCc1cc2cnccc2[nH]1 [Compound 125, N-((1H-pyrrolo[3,2-c]pyridine-2-yl)methyl)-2-(2-(4-(((3R,3aR,6R,6aR)-6-hydroxyhexahydrofuro[3,2-b]furan-3-yl)oxy)phenyl)-6-oxo-5-((3-phenylpropyl)amino)pyrimidin-1(6H)-yl)acetamide]
10 | < 100 | O=C(Cn1c(-c2ccccc2)ncc(NC(=O)c2ccc(-c3ccc(F)cc3F)cc2)c1=O)NCc1cc2cnccc2[nH]1 [Compound 92, N-(1-(2-(((1H-pyrrolo[3,2-c]pyridin-2-yl)methyl)amino)-2-oxoethyl)-6-oxo-2-phenyl-1,6-dihydropyrimidin-5-yl)-2′,4′-difluoro-[1,1′-biphenyl]-4-carboxamide]
